Measurements: US10059717B2, “Urea compounds containing 3,4-dihydropyrimido[4,5-D]pyrimidin-2(1H)-one skeleton as protein kinase inhibitors” (KOREA INSTITUTE OF SCIENCE AND TECHNOLOGY, priority 2016, dated 2018)

Key:
[1] = test system: OCI-AML3 (N-Ras Q61L); experiment: Proliferation inhibitory activity, OCI-AML3; format: cell-based; conditions: Homo sapiens, OCI-AML-3; OCI-AML3 (N-Ras Q61L) cell line; read-out: Proliferation inhibitory efficacy (GI50, μM) OCI-AML3 (N-Ras Q61L)
Method: GI50 values were calculated by measuring the proliferation inhibitory efficacy of the compounds of the present invention on mt-NRAS (G12D) Ba/F3, U937 (wt-NRAS) and OCI-AML3 (mt-NRAS) cell lines.
Accordingly, the compounds of the present invention are particularly effective as a therapeutic agent for acute myelogenous leukemia (AML).

[2] = target: MEKK2 (Homo sapiens, UniProt Q9Y2U5); experiment: Kinase panel biochemical assay; conditions: 1 μM single concentration, read-out: % residual enzyme activity
Method: (§1) In order to measure the protein kinase inhibitory activity (% inhibition) of the compounds of the present invention, biochemical assays were performed on the full kinase panel listed in the following Table 1.
(§2) As an test compound, 1-(3-(7-((6-(4-ethylpiperazine-1-carbonyl)pyridin-3-yl)amino)-1-methyl-2-oxo-1,4-dihydropyrimido[4,5-d]pyrimidin-3(2H)-yl)-4-methylphenyl)-3-(2-methoxyphenyl)urea (Compound No. 14) was used. The kinase inhibitory efficacy was measured upon treatment with a 1 μM single concentration of the test compound to calculate % residual enzyme activity value.
(§3) ABL1, FGFR2, TAOK2/TAO1, EPHA5, EPHB2, EPHB3, RET, LYN B, EPHA2, FRK/PTK5, EPHA8, LCK, EPHB4, FYN, KHS/MAP4K5, DDR1, EPHA3, P38a/MAPK14, EPHA4, FMS, EPHB1, HCK, FGFR1, ABL2/ARG, EPHA6, c-Src, ACK1, FLT4NEGFR3, ERBB4/HER4, DDR2, KDRNEGFR2, LYN, ZAK/MLTK, YES/YES1, BLK, FGR, MLCK2/MYLK2, TAOK1, BMX/ETK, BTK, EPHA1, JAK1, P38b/MAPK11, TIE2/TEK, FLT1NEGFR1, TXK, SRMS, RAF1, SIK1, MLK3/MAP3K11, PEAK1, TRKA, EPHA7, GLK/MAP4K3, MLK2/MAP3K10, TEC, CSK, TRKC, FES/FPS, SIK2, FGFR3, BRK, YSK4/MAP3K19, ARAF, PDGFRb, TNK1, GCK/MAP4K2, PDGFRa, TNIK, TAK1, ERBB2/HER2, LIMK1, HIPK4, FER, EGFR, JAK2, HPK1/MAP4K1, TRKB, RIPK3, LOK/STK10, LIMK2, MLK1/MAP3K9, BRAF, MEKK3, MEK5, STK32B/YANK2, FGFR4, MEKK2, SLK/STK2, FLT3, PKAcg, TAOK3/JIK, TYRO3/SKY, SIK3, IR, LRRK2, PYK2, NEK11, p70S6K/RPS6KB1, LATS2.

[3] = target: IR (Homo sapiens, UniProt P06213); experiment: Kinase panel biochemical assay; conditions: 1 μM single concentration, read-out: % residual enzyme activity
Method: as §1, §2, §3

[4] = target: DDR2 (Homo sapiens, UniProt Q16832); experiment: Kinase panel biochemical assay; conditions: 1 μM single concentration, read-out: % residual enzyme activity
Method: as §1, §2, §3

[5] = target: LCK (Homo sapiens, UniProt P06239); experiment: Kinase panel biochemical assay; conditions: 1 μM single concentration, read-out: % residual enzyme activity
Method: as §1, §2, §3

[6] = target: ACK1 (Homo sapiens, UniProt Q07912); experiment: Kinase panel biochemical assay; conditions: 1 μM single concentration, read-out: % residual enzyme activity
Method: as §1, §2, §3

[7] = target: FRK/PTK5 (Homo sapiens, UniProt P42685); experiment: Kinase panel biochemical assay; conditions: 1 μM single concentration, read-out: % residual enzyme activity
Chain of FRK/PTK5 (P42685 whole entry): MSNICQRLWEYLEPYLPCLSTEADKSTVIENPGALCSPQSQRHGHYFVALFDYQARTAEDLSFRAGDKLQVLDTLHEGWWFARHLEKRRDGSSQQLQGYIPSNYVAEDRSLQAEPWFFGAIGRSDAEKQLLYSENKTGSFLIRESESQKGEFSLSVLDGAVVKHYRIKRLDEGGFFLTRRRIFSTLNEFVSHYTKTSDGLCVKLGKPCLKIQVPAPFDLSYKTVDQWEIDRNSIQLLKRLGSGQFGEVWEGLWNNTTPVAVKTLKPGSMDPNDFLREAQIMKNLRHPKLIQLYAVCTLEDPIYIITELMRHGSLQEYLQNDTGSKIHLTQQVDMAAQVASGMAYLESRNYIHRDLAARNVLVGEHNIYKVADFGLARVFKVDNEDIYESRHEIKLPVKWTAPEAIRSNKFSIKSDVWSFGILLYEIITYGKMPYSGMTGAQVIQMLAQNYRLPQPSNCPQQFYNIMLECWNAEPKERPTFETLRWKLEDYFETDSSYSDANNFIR
Method: as §1, §2, §3

[8] = target: FES/FPS (Homo sapiens, UniProt P07332); experiment: Kinase panel biochemical assay; conditions: 1 μM single concentration, read-out: % residual enzyme activity
Method: as §1, §2, §3

[9] = target: PEAK1 (Homo sapiens, UniProt Q9H792); experiment: Kinase panel biochemical assay; conditions: 1 μM single concentration, read-out: % residual enzyme activity
Chain of PEAK1 (Q9H792 whole entry): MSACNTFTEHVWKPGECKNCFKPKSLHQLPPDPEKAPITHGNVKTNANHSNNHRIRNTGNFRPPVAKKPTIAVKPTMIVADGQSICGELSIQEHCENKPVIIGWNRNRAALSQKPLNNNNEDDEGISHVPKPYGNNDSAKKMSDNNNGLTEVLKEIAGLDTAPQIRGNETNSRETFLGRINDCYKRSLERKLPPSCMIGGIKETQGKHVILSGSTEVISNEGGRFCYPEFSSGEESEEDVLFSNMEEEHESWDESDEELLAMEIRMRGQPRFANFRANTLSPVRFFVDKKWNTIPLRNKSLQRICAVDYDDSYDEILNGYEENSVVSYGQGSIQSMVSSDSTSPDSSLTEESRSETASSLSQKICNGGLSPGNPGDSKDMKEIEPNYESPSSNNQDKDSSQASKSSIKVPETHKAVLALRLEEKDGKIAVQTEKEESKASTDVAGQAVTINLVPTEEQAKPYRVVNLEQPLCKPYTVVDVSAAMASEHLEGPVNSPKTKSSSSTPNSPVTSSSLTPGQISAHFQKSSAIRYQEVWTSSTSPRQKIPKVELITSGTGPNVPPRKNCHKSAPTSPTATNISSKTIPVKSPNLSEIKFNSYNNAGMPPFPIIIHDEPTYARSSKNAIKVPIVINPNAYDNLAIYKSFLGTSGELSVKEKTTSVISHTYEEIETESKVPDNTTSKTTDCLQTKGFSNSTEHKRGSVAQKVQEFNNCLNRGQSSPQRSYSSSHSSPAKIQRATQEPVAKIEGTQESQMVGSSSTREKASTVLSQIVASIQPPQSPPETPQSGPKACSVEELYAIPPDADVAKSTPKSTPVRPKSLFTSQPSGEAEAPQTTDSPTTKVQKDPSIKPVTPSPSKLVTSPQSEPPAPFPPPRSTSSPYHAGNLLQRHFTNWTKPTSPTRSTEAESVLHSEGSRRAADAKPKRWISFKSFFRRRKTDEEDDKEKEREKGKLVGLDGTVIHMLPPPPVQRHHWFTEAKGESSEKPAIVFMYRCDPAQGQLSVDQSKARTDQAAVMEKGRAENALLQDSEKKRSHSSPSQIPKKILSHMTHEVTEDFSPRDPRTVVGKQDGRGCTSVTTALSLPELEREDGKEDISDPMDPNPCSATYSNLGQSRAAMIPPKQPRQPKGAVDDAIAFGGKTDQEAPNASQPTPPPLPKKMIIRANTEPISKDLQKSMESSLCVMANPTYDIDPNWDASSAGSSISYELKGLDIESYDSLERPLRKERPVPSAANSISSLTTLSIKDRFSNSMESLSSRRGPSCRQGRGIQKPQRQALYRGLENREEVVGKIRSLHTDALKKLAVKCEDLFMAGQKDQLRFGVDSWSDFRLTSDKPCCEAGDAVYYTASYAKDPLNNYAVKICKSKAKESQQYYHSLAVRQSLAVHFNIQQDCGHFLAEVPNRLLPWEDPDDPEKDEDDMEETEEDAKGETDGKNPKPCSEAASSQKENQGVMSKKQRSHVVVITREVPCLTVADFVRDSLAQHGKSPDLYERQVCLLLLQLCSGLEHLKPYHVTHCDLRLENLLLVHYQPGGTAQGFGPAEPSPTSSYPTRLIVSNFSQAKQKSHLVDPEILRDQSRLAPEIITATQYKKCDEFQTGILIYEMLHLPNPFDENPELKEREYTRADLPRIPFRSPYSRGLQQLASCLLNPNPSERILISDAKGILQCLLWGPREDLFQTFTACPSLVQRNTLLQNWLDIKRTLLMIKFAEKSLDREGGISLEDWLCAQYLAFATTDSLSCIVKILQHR
Method: as §1, §2, §3

[10] = target: TNIK (Homo sapiens, UniProt Q9UKE5); experiment: Kinase panel biochemical assay; conditions: 1 μM single concentration, read-out: % residual enzyme activity
Method: as §1, §2, §3

[11] = target: MLCK2/MYLK2 (Homo sapiens, UniProt Q9H1R3); experiment: Kinase panel biochemical assay; conditions: 1 μM single concentration, read-out: % residual enzyme activity
Method: as §1, §2, §3

[12] = target: TAOK2/TAO1 (Homo sapiens, UniProt Q9UL54); experiment: Kinase panel biochemical assay; conditions: 1 μM single concentration, read-out: % residual enzyme activity
Chain of TAOK2/TAO1 (Q9UL54 whole entry): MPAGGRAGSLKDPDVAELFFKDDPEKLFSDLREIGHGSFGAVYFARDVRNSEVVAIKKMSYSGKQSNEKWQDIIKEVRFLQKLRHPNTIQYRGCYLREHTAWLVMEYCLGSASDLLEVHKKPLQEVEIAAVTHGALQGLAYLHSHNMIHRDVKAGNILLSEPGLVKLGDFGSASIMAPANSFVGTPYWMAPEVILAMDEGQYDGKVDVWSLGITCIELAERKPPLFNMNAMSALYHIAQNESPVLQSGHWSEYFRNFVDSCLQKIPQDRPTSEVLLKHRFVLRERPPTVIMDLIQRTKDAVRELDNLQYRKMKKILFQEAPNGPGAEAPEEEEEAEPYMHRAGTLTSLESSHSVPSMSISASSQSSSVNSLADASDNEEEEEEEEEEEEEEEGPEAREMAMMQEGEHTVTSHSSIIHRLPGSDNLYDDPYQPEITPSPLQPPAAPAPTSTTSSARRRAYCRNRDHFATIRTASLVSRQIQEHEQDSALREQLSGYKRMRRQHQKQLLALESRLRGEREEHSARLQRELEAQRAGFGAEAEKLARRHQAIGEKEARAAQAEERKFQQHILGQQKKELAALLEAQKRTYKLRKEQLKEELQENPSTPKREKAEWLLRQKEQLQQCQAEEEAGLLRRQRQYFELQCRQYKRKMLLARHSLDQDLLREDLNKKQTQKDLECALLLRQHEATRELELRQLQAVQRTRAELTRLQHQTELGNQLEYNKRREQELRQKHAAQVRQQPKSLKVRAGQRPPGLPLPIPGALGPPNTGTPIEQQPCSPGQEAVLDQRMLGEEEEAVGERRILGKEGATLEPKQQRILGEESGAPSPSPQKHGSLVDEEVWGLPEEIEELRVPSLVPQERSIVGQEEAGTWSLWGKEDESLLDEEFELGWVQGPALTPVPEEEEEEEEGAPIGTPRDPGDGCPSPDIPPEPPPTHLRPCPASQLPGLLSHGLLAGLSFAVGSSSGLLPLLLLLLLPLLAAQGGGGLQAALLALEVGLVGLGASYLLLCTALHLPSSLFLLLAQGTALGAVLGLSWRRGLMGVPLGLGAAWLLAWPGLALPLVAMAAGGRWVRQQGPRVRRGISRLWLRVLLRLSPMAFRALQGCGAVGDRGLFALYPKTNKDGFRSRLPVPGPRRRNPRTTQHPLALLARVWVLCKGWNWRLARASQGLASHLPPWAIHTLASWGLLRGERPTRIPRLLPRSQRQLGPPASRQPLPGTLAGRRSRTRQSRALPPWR
Method: as §1, §2, §3

[13] = target: LIMK2 (Homo sapiens, UniProt P53671); experiment: Kinase panel biochemical assay; conditions: 1 μM single concentration, read-out: % residual enzyme activity
Method: as §1, §2, §3

[14] = target: SLK/STK2 (Homo sapiens, UniProt Q9H2G2); experiment: Kinase panel biochemical assay; conditions: 1 μM single concentration, read-out: % residual enzyme activity
Method: as §1, §2, §3

[15] = target: P38a/MAPK14 (Homo sapiens, UniProt Q16539); experiment: Kinase panel biochemical assay; conditions: 1 μM single concentration, read-out: % residual enzyme activity
Method: as §1, §2, §3

[16] = target: TEC (Homo sapiens, UniProt P42680); experiment: Kinase panel biochemical assay; conditions: 1 μM single concentration, read-out: % residual enzyme activity
Method: as §1, §2, §3

[17] = target: FGFR2 (Homo sapiens, UniProt P21802); experiment: Kinase panel biochemical assay; conditions: 1 μM single concentration, read-out: % residual enzyme activity
Method: as §1, §2, §3

[18] = target: TNK1 (Homo sapiens, UniProt Q13470); experiment: Kinase panel biochemical assay; conditions: 1 μM single concentration, read-out: % residual enzyme activity
Method: as §1, §2, §3

[19] = target: EPHA2 (Homo sapiens, UniProt P29317); experiment: Kinase panel biochemical assay; conditions: 1 μM single concentration, read-out: % residual enzyme activity
Method: as §1, §2, §3

[20] = target: EGFR (Homo sapiens, UniProt P00533); experiment: Kinase panel biochemical assay; conditions: 1 μM single concentration, read-out: % residual enzyme activity
Method: as §1, §2, §3

[21] = target: FMS (Homo sapiens, UniProt P07333); experiment: Kinase panel biochemical assay; conditions: 1 μM single concentration, read-out: % residual enzyme activity
Chain of FMS (P07333 20-972): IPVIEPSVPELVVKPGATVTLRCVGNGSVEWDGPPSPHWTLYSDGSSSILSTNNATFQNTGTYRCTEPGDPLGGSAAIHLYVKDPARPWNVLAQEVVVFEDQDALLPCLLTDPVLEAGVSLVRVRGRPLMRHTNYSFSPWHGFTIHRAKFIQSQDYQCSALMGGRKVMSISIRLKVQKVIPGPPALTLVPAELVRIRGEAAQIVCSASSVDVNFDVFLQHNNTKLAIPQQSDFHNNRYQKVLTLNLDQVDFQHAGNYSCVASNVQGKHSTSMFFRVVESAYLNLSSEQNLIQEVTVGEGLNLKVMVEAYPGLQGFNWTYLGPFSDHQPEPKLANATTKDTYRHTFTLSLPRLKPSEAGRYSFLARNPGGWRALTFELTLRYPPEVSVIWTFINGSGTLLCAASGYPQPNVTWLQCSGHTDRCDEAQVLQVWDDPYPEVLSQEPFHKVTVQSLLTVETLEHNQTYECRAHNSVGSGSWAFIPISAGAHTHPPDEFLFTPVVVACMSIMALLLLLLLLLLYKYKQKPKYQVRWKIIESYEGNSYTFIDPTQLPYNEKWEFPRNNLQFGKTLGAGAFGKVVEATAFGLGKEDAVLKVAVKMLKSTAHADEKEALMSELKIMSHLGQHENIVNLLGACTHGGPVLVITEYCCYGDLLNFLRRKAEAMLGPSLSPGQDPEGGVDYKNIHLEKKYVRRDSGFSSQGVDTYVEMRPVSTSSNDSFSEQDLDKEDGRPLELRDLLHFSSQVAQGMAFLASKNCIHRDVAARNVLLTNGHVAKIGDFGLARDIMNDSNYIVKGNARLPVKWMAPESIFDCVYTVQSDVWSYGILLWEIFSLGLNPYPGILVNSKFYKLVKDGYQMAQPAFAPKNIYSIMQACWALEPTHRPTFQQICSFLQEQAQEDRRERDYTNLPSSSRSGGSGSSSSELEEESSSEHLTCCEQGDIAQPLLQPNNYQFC
Method: as §1, §2, §3

[22] = target: RAF1 (Homo sapiens, UniProt P04049); experiment: Kinase panel biochemical assay; conditions: 1 μM single concentration, read-out: % residual enzyme activity
Method: as §1, §2, §3

[23] = target: PDGFRb (Homo sapiens, UniProt P09619); experiment: Kinase panel biochemical assay; conditions: 1 μM single concentration, read-out: % residual enzyme activity
Method: as §1, §2, §3

[24] = target: ABL2/ARG (Homo sapiens, UniProt P42684); experiment: Kinase panel biochemical assay; conditions: 1 μM single concentration, read-out: % residual enzyme activity
Method: as §1, §2, §3

[25] = target: YSK4/MAP3K19 (Homo sapiens, UniProt Q56UN5); experiment: Kinase panel biochemical assay; conditions: 1 μM single concentration, read-out: % residual enzyme activity
Method: as §1, §2, §3

[26] = target: RIPK3 (Homo sapiens, UniProt Q9Y572); experiment: Kinase panel biochemical assay; conditions: 1 μM single concentration, read-out: % residual enzyme activity
Chain of RIPK3 (Q9Y572 whole entry): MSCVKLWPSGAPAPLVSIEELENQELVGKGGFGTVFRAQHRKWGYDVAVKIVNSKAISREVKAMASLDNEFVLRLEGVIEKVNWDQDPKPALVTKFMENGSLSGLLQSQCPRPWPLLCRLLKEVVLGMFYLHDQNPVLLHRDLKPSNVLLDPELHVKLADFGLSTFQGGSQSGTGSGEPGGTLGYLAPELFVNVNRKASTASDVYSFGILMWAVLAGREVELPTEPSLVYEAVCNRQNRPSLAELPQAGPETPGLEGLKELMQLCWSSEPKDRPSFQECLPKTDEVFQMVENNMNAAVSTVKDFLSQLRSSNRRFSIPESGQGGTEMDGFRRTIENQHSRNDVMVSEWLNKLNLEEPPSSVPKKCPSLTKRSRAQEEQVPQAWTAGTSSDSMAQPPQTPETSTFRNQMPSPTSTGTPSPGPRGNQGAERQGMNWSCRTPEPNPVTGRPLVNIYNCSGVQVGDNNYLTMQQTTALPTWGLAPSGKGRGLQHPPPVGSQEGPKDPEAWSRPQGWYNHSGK
Method: as §1, §2, §3

[27] = target: KHS/MAP4K5 (Homo sapiens, UniProt Q9Y4K4); experiment: Kinase panel biochemical assay; conditions: 1 μM single concentration, read-out: % residual enzyme activity
Method: as §1, §2, §3

[28] = target: HIPK4 (Homo sapiens, UniProt Q8NE63); experiment: Kinase panel biochemical assay; conditions: 1 μM single concentration, read-out: % residual enzyme activity
Method: as §1, §2, §3

GI50 [1]: < 0.5 µM
remaining activity at 1 µM [2]: ≤ 30%
remaining activity at 1 µM [3]: ≤ 30%
remaining activity at 1 µM [4]: ≤ 30%
remaining activity at 1 µM [5]: ≤ 30%
remaining activity at 1 µM [6]: ≤ 30%
remaining activity at 1 µM [7]: ≤ 30%
remaining activity at 1 µM [8]: ≤ 30%
remaining activity at 1 µM [9]: ≤ 30%
remaining activity at 1 µM [10]: ≤ 30%
remaining activity at 1 µM [11]: ≤ 30%
remaining activity at 1 µM [12]: ≤ 30%
remaining activity at 1 µM [13]: ≤ 30%
remaining activity at 1 µM [14]: ≤ 30%
remaining activity at 1 µM [15]: ≤ 30%
remaining activity at 1 µM [16]: ≤ 30%
remaining activity at 1 µM [17]: ≤ 30%
remaining activity at 1 µM [18]: ≤ 30%
remaining activity at 1 µM [19]: ≤ 30%
remaining activity at 1 µM [20]: ≤ 30%
remaining activity at 1 µM [21]: ≤ 30%
remaining activity at 1 µM [22]: ≤ 30%
remaining activity at 1 µM [23]: ≤ 30%
remaining activity at 1 µM [24]: ≤ 30%
remaining activity at 1 µM [25]: ≤ 30%
remaining activity at 1 µM [26]: ≤ 30%
remaining activity at 1 µM [27]: ≤ 30%
remaining activity at 1 µM [28]: ≤ 30%
SMILES: CCN1CCN(C(=O)c2ccc(Nc3ncc4c(n3)N(C)C(=O)N(c3cc(NC(=O)Nc5ccccc5OC)ccc3C)C4)cn2)CC1 [Compound No. 14, 1-(3-(7-((6-(4-ethylpiperazin-1-carbonyl)pyridin-3-yl)amino)-1-methyl-2-oxo-1,4-dihydropyrimido[4,5-d]pyrimidin-3(2H)-yl)-4-methylphenyl)-3-(2-methoxyphenyl)urea]
